Reference: patent US20240383856A1 (Zedira GmbH, priority 2021, published 2024)
Where two headings read alike, the source gives them in different places.

What was measured:
[1] = logD by shake flask method (octanol / PBS pH 7.4, HPLC); assay type: physicochemical; settings: octanol / PBS pH 7.4, shake flask
Method in brief: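 LogD obtained by HPLC measurement of how the compound distributes between PBS (pH 7.4) and octanol in a shake-flask experiment.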

[2] = Single-dose oral pharmacokinetic profile in mice; assay type: in vivo; settings: male C57BL/6 mice, single oral dose 200 mg/kg
Protocol: Presumed from promising Papp values (permeability coefficients, see below), the 5 inventors had proven the oral bioavailability of the inhibitors of the present application by the representative compounds II-3, II-15, and II-28. For this selected set of representative compounds, pharmacokinetic profiles were determined in male C57BL/6 mice (N=3, each). Briefly, the compounds were administered as single-dose soluble, oral formulation [20 mg/ml in PBS/(2—Hydroxypropyl)-β-cyclodextrin formulation] at 200 mg/kg. Plasma samples were taken at (0, 0.25, 0.5, 1, 2, 4, and 6 hours) and analyzed by LC-MS to determine the concentration of the representative compounds.

Q: Which results are given for CNC(=O)C(=O)CC[C@H](NC(=O)c1oc2ccccc2c1C)C(=O)Nc1cccn(CC(=O)NC2C3CC4CC(C3)CC2C4)c1=O (stereo partly drawn) [II-3, (S)-N1-(1-(2-(2-adamantylamino)-2-oxoethyl)-2-oxo-1,2-dihydropyridin-3-yl)-N6-methyl-2-(3-methylbenzofuran-2-carboxamido)-5-oxohexanediamide]?
A: logD [1]: 1 to 3; Kel [2]: 1.0 h⁻¹; CL/F ([2]; mouse, plasma): 277 mL/min/kg; MRT ([2]; mouse, plasma): 60 min; half-life ([2]; mouse, plasma): 42 min; AUC(0-t) ([2]; mouse, plasma): 12000 ng·h/mL; Cmax ([2]; mouse, plasma, read-out: Cmax): 21.6 µM; Cmax ([2]; mouse, plasma, read-out: Cmax [ng/ml]): 13600 ng/mL
